In patent US9938562B2, “Naphthalene derived chromogenic enzyme substrates” (Glycosynth Limited, priority 2013, dated 2018):
Structures can show the parent of a compound that is named as a salt.

Assays:
Type in all cases: cell-based
[1] = tested on: clinical isolates of E. coli; assay: Glucuronide sensitivity screen, agar plates (CPS ID 3 or Columbia agar)
E. cloacae = assay: Glucuronide screen, agar plates (CPS ID 3 or Columbia agar)
E. faecium NCTC 7171 = assay: as above; details: E. faecium NCTC 7171, agar
E. faecalis NCTC 775 = assay: as above; details: E. faecalis NCTC 775, agar
[2] = 100 E. coli strains, agar, 18 h incubation

## O=C(O)[C@H]1O[C@@H](Oc2c[nH]c3cc(Cl)ccc23)[C@H](O)[C@@H](O)[C@@H]1O [Rose-β-D-glucuronide CHA salt, 6-chloro-3-indolyl β-D-glucuronide]
[1]
  % Sensitivity: 81%
[1]; [2]
  Negative strains: 19
  Positive strains: 81
[1]; E. coli 260262P, agar
  Colour: Red
[1]; E. coli 260280Z, agar
  Colour: Red
[1]; E. coli 260310H, agar
  Colour: Red
[1]; E. coli 260313A, agar
  Colour: −
[1]; E. coli 260316T, agar
  Colour: −
[1]; E. coli 260327V, agar
  Colour: Red
[1]; E. coli 260330Y, agar
  Colour: Red
[1]; E. coli 260333P, agar
  Colour: −
[1]; E. coli 260345F, agar
  Colour: Red
[1]; E. coli 260348K, agar
  Colour: Red
[1]; E. coli 260354W, agar
  Colour: Red
[1]; E. coli 260364H, agar
  Colour: −
[1]; E. coli 260370C, agar
  Colour: Red
[1]; E. coli 260375E, agar
  Colour: Red
[1]; E. coli 260390B, agar
  Colour: −
[1]; E. coli 260396Z, agar
  Colour: Red
[1]; E. coli 260398Q, agar
  Colour: Red
[1]; E. coli 260399E, agar
  Colour: Red
[1]; E. coli 260400N, agar
  Colour: −
[1]; E. coli 260401Q, agar
  Colour: Red
[1]; E. coli 260402H, agar
  Colour: Red
[1]; E. coli 260404W, agar
  Colour: Red
[1]; E. coli 260405P, agar
  Colour: Red
[1]; E. coli 260406A, agar
  Colour: −
[1]; E. coli 260406Y, agar
  Colour: Red
[1]; E. coli 260407F, agar
  Colour: Red
[1]; E. coli 260408C, agar
  Colour: Red
[1]; E. coli 260411Z, agar
  Colour: Red
[1]; E. coli 260412Q, agar
  Colour: Red
[1]; E. coli 260414H, agar
  Colour: Red
[1]; E. coli 260415Y, agar
  Colour: Red
[1]; E. coli 260416W, agar
  Colour: −
[1]; E. coli 260417P, agar
  Colour: Red
[1]; E. coli 260422Y, agar
  Colour: Red
[1]; E. coli 260424P, agar
  Colour: Red
[1]; E. coli 260425A, agar
  Colour: Red
[1]; E. coli 260426F, agar
  Colour: Red
[1]; E. coli 260428T, agar
  Colour: Red
[1]; E. coli 260431N, agar
  Colour: Red
[1]; E. coli 260432E, agar
  Colour: Red
[1]; E. coli 260433H, agar
  Colour: Red
[1]; E. coli 260434Y, agar
  Colour: Red
[1]; E. coli 260435W, agar
  Colour: Red
[1]; E. coli 260436P, agar
  Colour: Red
[1]; E. coli 260437A, agar
  Colour: Tr. Red
[1]; E. coli 260438F, agar
  Colour: Red
[1]; E. coli 260439C, agar
  Colour: Red
[1]; E. coli 260440S, agar
  Colour: Red
[1]; E. coli 260441G, agar
  Colour: Red
[1]; E. coli 260458Y, agar
  Colour: Red
[1]; E. coli 260459W, agar
  Colour: Red
[1]; E. coli 260463D, agar
  Colour: Red
[1]; E. coli 260464G, agar
  Colour: Red
[1]; E. coli 260471B, agar
  Colour: −
[1]; E. coli 260478N, agar
  Colour: −
[1]; E. coli 260479Q, agar
  Colour: Red
[1]; E. coli 260480M, agar
  Colour: Red
[1]; E. coli 260481J, agar
  Colour: Red
[1]; E. coli 260483R, agar
  Colour: −
[1]; E. coli 260485D, agar
  Colour: Red
[1]; E. coli 260486L, agar
  Colour: Red
[1]; E. coli 260492J, agar
  Colour: Red
[1]; E. coli 260494B, agar
  Colour: Red
[1]; E. coli 260495R, agar
  Colour: −
[1]; E. coli 260497D, agar
  Colour: Red
[1]; E. coli 260502G, agar
  Colour: Red
[1]; E. coli 260503Z, agar
  Colour: Red
[1]; E. coli 260504N, agar
  Colour: Red
[1]; E. coli 260505Q, agar
  Colour: −
[1]; E. coli 260506E, agar
  Colour: Red
[1]; E. coli 260508Y, agar
  Colour: Red
[1]; E. coli 260509W, agar
  Colour: Red
[1]; E. coli 260510R, agar
  Colour: Red
[1]; E. coli 260511X, agar
  Colour: Red
[1]; E. coli 260514G, agar
  Colour: −
[1]; E. coli 260515Z, agar
  Colour: Red
[1]; E. coli 260521S, agar
  Colour: Red
[1]; E. coli 260522Z, agar
  Colour: Red
[1]; E. coli 260532S, agar
  Colour: Red
[1]; E. coli 260533G, agar
  Colour: Red
[1]; E. coli 260536Q, agar
  Colour: Red
[1]; E. coli 260537E, agar
  Colour: −
[1]; E. coli 260538H, agar
  Colour: −
[1]; E. coli 260539Y, agar
  Colour: Red
[1]; E. coli 260541R, agar
  Colour: Red
[1]; E. coli 260545G, agar
  Colour: Red
[1]; E. coli 260547N, agar
  Colour: Red
[1]; E. coli 260548Q, agar
  Colour: Red
[1]; E. coli 260549E, agar
  Colour: Red
[1]; E. coli 260553X, agar
  Colour: −
[1]; E. coli 260554D, agar
  Colour: Red
[1]; E. coli 260555L, agar
  Colour: Red
[1]; E. coli 260563B, agar
  Colour: Red
[1]; E. coli 260564R, agar
  Colour: Red
[1]; E. coli 260578D, agar
  Colour: −
[1]; E. coli 2603121P, agar
  Colour: −
E. cloacae; E. cloacae 260329R, agar
  Colour: −
E. cloacae; E. cloacae NCTC 11936, agar
  Colour: −
E. faecium NCTC 7171
  Colour: −
E. faecalis NCTC 775
  Colour: −
